Assay results published in patent publication US7592140B2, “2′, 5′-oligoadenylate phosphodiesterase” (priority 2002, dated 2009).

What was measured:
[1] = biological target: T1, recombinant human 2′-PDE (Homo sapiens, UniProt Q6L8Q7); experiment: Inhibition of recombinant human 2′-PDE activity (HPLC measurement of substrate reduction); assay type: biochemical; parameters: His6 (histidine hexamer) (C); made in house; nickel-chelate partial purification; details: substrate 0.75 mM adenylyl(2′-5′)adenosine, 37° C. for 60 min; read-out: 50% inhibition concentration (converted)
T1 sequence (Q6L8Q7 43-609): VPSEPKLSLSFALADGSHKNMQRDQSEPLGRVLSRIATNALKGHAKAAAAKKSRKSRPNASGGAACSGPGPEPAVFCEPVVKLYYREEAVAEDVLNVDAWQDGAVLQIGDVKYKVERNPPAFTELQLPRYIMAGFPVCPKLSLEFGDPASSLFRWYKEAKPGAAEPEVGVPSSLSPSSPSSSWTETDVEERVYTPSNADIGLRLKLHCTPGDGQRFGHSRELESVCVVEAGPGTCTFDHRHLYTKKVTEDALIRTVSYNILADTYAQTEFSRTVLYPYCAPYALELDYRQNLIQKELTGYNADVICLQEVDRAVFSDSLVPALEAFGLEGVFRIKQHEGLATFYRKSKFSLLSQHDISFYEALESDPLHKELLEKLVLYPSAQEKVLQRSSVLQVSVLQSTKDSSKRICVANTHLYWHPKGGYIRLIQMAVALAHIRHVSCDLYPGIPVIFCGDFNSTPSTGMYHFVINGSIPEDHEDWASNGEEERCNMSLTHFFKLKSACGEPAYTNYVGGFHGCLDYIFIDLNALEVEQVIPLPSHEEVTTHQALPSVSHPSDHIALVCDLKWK
Method: To 10 μl of the partially purified human 2′-PDE enzyme solution obtained in part 1) of Production Example 1, were added 80 μl of Buffer 7 containing 0.75 mM adenylyl(2′-5′)adenosine as the substrate and 10 μl of a solution of the A-74528 compound dissolved in dimethyl sulphoxide. Then the mixture was incubated at 37° C. for 60 min. and the enzyme was inactivated by addition of 200 μl of methanol. Ten μl of the sample obtained, after insoluble matter was removed using a 0.45 μm filter, was subjected to a reversed phase column (Inertsil ODS-2, 5 μm: diameter 4.6 mm×150 mm: manufactured by GL Science), equilibrated beforehand with Buffer 17 [50 mM ammonium acetate (pH 5.0), 5% (V/V) acetonitrile]. Liquid chromatography was performed at a flow rate of 1 ml/min. at 40° C., and the eluate was monitored at a wavelength of 260 nm. The elution was conducted as an isocratic elution. Using a standard material for the substrate, a conversion formula for obtaining the substrate amount based on the peak area was prepared. Based on the conversion formula, the reduction in the amount of the substrate was calculated from the substrate peak area when the diluted enzyme solution was added, which was regarded as the amount of the enzyme reaction product.

[2] = Solubility (physicochemical properties)
[3] = system: Vaccinia virus WR strain; assay type: cell-based
[4] = biological target: T1, recombinant human 2′-PDE; experiment: Substrate specificity of recombinant human 2′-PDE (HPLC); assay type: biochemical; parameters: His6 (histidine hexamer) (C); made in house; host or cells: COS-1 cells (monkey kidney), transient transfection with pEF6/KUBO#002/11-1; nickel-chelate partial purification; details: relative to adenylyl(2′-5′)adenosine defined as one; 150 μM substrate, 37° C. for 60 min
[5] = system: 2′-PDE purified by Johnston et al.; details: value obtained by Johnston et al.; activity with A2′pA defined as 1; cited from earlier work
[6] = system: PC-3 cells; experiment: Cell viability of PC-3 cells (Alamar Blue); assay type: cell-based, human; details: host PC-3 cells, cultured for 3 days
[7] = system: 2′-PDE stable expression strains #6 and #10; experiment: Cell viability of 2′-PDE stable expression strains of PC-3 (Alamar Blue); assay type: cell-based, human; details: cultured for 3 days

CC1c2c(O)cc(O)c3c2C2C(CC(O)=C4C(=O)c5c(O)cc(O)cc5C(C3=O)C42Cc2cc(O)cc(=O)o2)C1O (stereo not shown) [A-74528]
IC50 [1]: 60.7 µM | solubility [2]: soluble in methanol and dimethyl sulphoxide | effect on viral replication-suppression activity of interferon-α [3]: enhanced the viral replication-suppression activity of interferon-α | viral replication-suppression activity [3]: exhibited a viral replication-suppression activity in a concentration-dependent manner

Nc1ncnc2c1ncn2[C@@H]1O[C@H](COP(=O)(O)O[C@H]2[C@@H](O)[C@H](n3cnc4c(N)ncnc43)O[C@@H]2COP(=O)(O)O[C@H]2[C@@H](O)[C@H](n3cnc4c(N)ncnc43)O[C@@H]2CO)[C@@H](O)[C@H]1O [adenylyl(3′-5′)adenylyl(3′-5′)adenosine]
relative cleavage efficiency [4]: 1.1 | relative cleavage efficiency [5]: 163

interferon-α
suppression of cell viability [6]: suppressed the viability of PC-3 cells in a concentration-dependent manner | cell proliferation suppression activity compared with host PC-3 cells [7]: attenuated

B1: interferon-γ (protein, UniProt P01579 24-161, looked up)
Interferon gamma: QDPYVKEAENLKKYFNAGHSDVADNGTLFLGILKNWKEESDRKIMQSQIVSFYFKLFKNFKDDQSIQKSVETIKEDMNVKFFNSNKKKRDDFEKLTNYSVTDLNVQRKAIHELIQVMAELSPAAKTGKRKRSQMLFRG
suppression of cell viability [6]: suppressed the viability of PC-3 cells in a concentration-dependent manner | cell proliferation suppression activity compared with host PC-3 cells [7]: attenuated
